Data on two compounds can be found in patent publication US9345723B2, “Rapid formation of chitosan sponges using guanosine 5′-diphosphate: injectable scaffolds for tissue regeneration and drug delivery” (THE ROYAL INSTITUTION FOR THE ADVANCEMENT OF …, priority 2012, dated 2016).

The test system of data set [1] is 3T3 fibroblasts. Nature of the data set: Cytotoxicity of GDP and TPP, MTT assay. It is filed as cell-based. The note with it: concentrations higher than 5 mM, 24 hours of culture. Here is the method:
FIG. 3 illustrates the comparison of the cytotoxicity of GDP and TPP at different concentrations; FIG. 3A: light microscopy images of 3T3 fibroblasts with different concentrations of GDP and TPP added to the culture media after 24 hours; FIG. 3B: Quantitative analysis, using MTT assay, of the cytotoxicity of TPP and GDP to 3T3 fibroblasts at different concentrations after 24 hours.
Crosslinking of chitosan using GDP occurs due to the electrostatic attractions between the anionic phosphate groups of GDP and the cationic amine groups of chitosan. Another anionic crosslinker used in the art is tripolyphosphate (TPP), which has been widely used to fabricate chitosan nanoparticles, microparticles and fibers (Pati et al., 2011, Carbohyd Res, 346: 2582). The cytotoxicity of GDP was compared to tripolyphosphate (TPP) at concentrations from 0.05 mM to 50 mM using 3T3 fibroblasts.
Background: Tetrazolium assays rely on reduction of a dye to a coloured formazan, in cell work by metabolically active cells.

Data set [2] deals with 3T3 fibroblasts. The note with it: concentrations higher than 5 mM; recent study (Pati et al., 2012); cited from earlier work.

Each structure is given as a SMILES string.

On to `Nc1nc2c(ncn2[C@@H]2O[C@H](COP(=O)(O)OP(=O)(O)O)[C@@H](O)[C@H]2O)c(=O)[nH]1` [GDP, Guanosine 5′-Diphosphate], for which the “cytotoxicity compared to TPP” value in the data set on 3T3 fibroblasts [1] is recorded as “significantly less cytotoxic”. `O=P(O)(O)OP(=O)(O)OP(=O)(O)O` [TPP, tripolyphosphate]: in the data set with 3T3 fibroblasts [2], the cytotoxicity result was “cytotoxicity of TPP at concentrations higher than 5 mM”.
